# Laboratory results published in ChEMBL document CHEMBL3885881, “DrugMatrix”.
# Species: Rattus norvegicus
# Assay: DrugMatrix - Regimen: Daily Repeat
# Format: toxicity, organism-based, Sprague-Dawley
# Set-up: regimen Daily Repeat, gender Male, age 6-8 weeks
# Settings: in vivo, po, route oral GAVAGE, vehicle .5 % CMC; for ABSOLUTE BASOPHIL / ABSOLUTE EOSINOPHIL / ABSOLUTE LYMPHOCYTE / ABSOLUTE MONOCYTE / ABSOLUTE SEGMENTED NEUTROPHIL / BASOPHIL / EOSINOPHIL / ERYTHROCYTE COUNT / HEMATOCRIT / HEMOGLOBIN / LEUKOCYTE COUNT / LYMPHOCYTE / MEAN CORPUSCULAR HEMOGLOBIN / MEAN CORPUSCULAR HEMOGLOBIN CONCENTRATION / MEAN CORPUSCULAR VOLUME / MONOCYTE / NEUTROPHIL / NUCLEATED RED BLOOD CELLS / PLATELET COUNT: tissue Blood; for ALANINE AMINOTRANSFERASE / ALBUMIN / ALKALINE PHOSPHATASE / ASPARTATE AMINOTRANSFERASE / BLOOD UREA NITROGEN / CARBON DIOXIDE / CHLORIDE / CHOLESTEROL / CREATINE PHOSPHOKINASE / CREATININE / GLUCOSE / LACTATE DEHYDROGENASE / LIPASE / PHOSPHORUS / POTASSIUM / SODIUM / TOTAL BILIRUBIN / TOTAL PROTEIN / URIC ACID: tissue Plasma
# [1] = 2500 mg/kg, 120 h, dose level High, time 5 day
# [2] = […], 72 h, dose 5.4 mg/Kg, dose level Low, time 3 day
# [3] = […], 120 h, dose 5.4 mg/Kg, dose level Low, time 5 day
smiles,measurement,setting,value
CN1CCC[C@@H]1CCO[C@](C)(c1ccccc1)c1ccc(Cl)cc1 [CLEMASTINE],ABSOLUTE BASOPHIL,[1],0 CELLS/uL
same,ABSOLUTE EOSINOPHIL,[1],0 CELLS/uL
same,ABSOLUTE LYMPHOCYTE,[1],7767.5 CELLS/uL
same,ABSOLUTE MONOCYTE,[1],575 CELLS/uL
same,ABSOLUTE SEGMENTED NEUTROPHIL,[1],8407.5 CELLS/uL
same,BASOPHIL,[1],0%
same,EOSINOPHIL,[1],0%
same,ERYTHROCYTE COUNT,[1],7.67 x10E6/uL
same,HEMATOCRIT,[1],45.5%
same,HEMOGLOBIN,[1],18 G/DL
same,LEUKOCYTE COUNT,[1],16.75 x10E3/uL
same,LYMPHOCYTE,[1],45.5%
same,MEAN CORPUSCULAR HEMOGLOBIN,[1],23.5 pg
same,MEAN CORPUSCULAR HEMOGLOBIN CONCENTRATION,[1],39.55 G/DL
same,MEAN CORPUSCULAR VOLUME,[1],59.4 fL
same,MONOCYTE,[1],3.5%
same,NEUTROPHIL,[1],51%
same,NUCLEATED RED BLOOD CELLS,[1],0 /100WBC
same,PLATELET COUNT,[1],1417 x10E3/uL
same,ALANINE AMINOTRANSFERASE,[1],189 u/L
same,ALBUMIN,[1],3.45 G/DL
same,ALKALINE PHOSPHATASE,[1],274 u/L
same,ASPARTATE AMINOTRANSFERASE,[1],822.5 u/L
same,BLOOD UREA NITROGEN,[1],37 mg/dL
same,CARBON DIOXIDE,[1],21.5 mmol/L
same,CHLORIDE,[1],84 MEQ/L
same,CHOLESTEROL,[1],24 mg/dL
same,CREATINE PHOSPHOKINASE,[1],1389.5 u/L
same,CREATININE,[1],0.24 mg/dL
same,GLUCOSE,[1],68.5 mg/dL
same,LACTATE DEHYDROGENASE,[1],1904 u/L
same,LIPASE,[1],11 u/L
same,PHOSPHORUS,[1],22.25 mg/dL
same,POTASSIUM,[1],6.91 MEQ/L
same,SODIUM,[1],139.35 MEQ/L
same,TOTAL BILIRUBIN,[1],0.25 mg/dL
same,TOTAL PROTEIN,[1],5.3 G/DL
same,URIC ACID,[1],6.55 mg/dL
same,ABSOLUTE BASOPHIL,[2],0 CELLS/uL
same,ABSOLUTE EOSINOPHIL,[2],41.67 CELLS/uL
same,ABSOLUTE LYMPHOCYTE,[2],12326.67 CELLS/uL
same,ABSOLUTE MONOCYTE,[2],80.67 CELLS/uL
same,ABSOLUTE SEGMENTED NEUTROPHIL,[2],1517.67 CELLS/uL
same,BASOPHIL,[2],0%
same,EOSINOPHIL,[2],0.33%
same,ERYTHROCYTE COUNT,[2],5.26 x10E6/uL
same,HEMATOCRIT,[2],33.9%
same,HEMOGLOBIN,[2],13.3 G/DL
same,LEUKOCYTE COUNT,[2],13.97 x10E3/uL
same,LYMPHOCYTE,[2],88%
same,MEAN CORPUSCULAR HEMOGLOBIN,[2],25.3 pg
same,MEAN CORPUSCULAR HEMOGLOBIN CONCENTRATION,[2],39.23 G/DL
same,MEAN CORPUSCULAR VOLUME,[2],64.53 fL
same,MONOCYTE,[2],0.67%
same,NEUTROPHIL,[2],11%
same,NUCLEATED RED BLOOD CELLS,[2],0 /100WBC
same,PLATELET COUNT,[2],1091.33 x10E3/uL
same,ALANINE AMINOTRANSFERASE,[2],56 u/L
same,ALBUMIN,[2],4.07 G/DL
same,ALKALINE PHOSPHATASE,[2],313.67 u/L
same,ASPARTATE AMINOTRANSFERASE,[2],78.33 u/L
same,BLOOD UREA NITROGEN,[2],16 mg/dL
same,CARBON DIOXIDE,[2],30 mmol/L
same,CHLORIDE,[2],100.33 MEQ/L
same,CHOLESTEROL,[2],87 mg/dL
same,CREATINE PHOSPHOKINASE,[2],239.33 u/L
same,CREATININE,[2],0.19 mg/dL
same,GLUCOSE,[2],158.67 mg/dL
same,LACTATE DEHYDROGENASE,[2],247.33 u/L
same,LIPASE,[2],9.33 u/L
same,PHOSPHORUS,[2],11.17 mg/dL
same,POTASSIUM,[2],5.9 MEQ/L
same,SODIUM,[2],141.47 MEQ/L
same,TOTAL BILIRUBIN,[2],0.2 mg/dL
same,TOTAL PROTEIN,[2],5.63 G/DL
same,URIC ACID,[2],1.23 mg/dL
same,ABSOLUTE BASOPHIL,[3],0 CELLS/uL
same,ABSOLUTE EOSINOPHIL,[3],52.33 CELLS/uL
same,ABSOLUTE LYMPHOCYTE,[3],12918 CELLS/uL
same,ABSOLUTE MONOCYTE,[3],156.33 CELLS/uL
same,ABSOLUTE SEGMENTED NEUTROPHIL,[3],1306.67 CELLS/uL
same,BASOPHIL,[3],0%
same,EOSINOPHIL,[3],0.33%
same,ERYTHROCYTE COUNT,[3],5.68 x10E6/uL
same,HEMATOCRIT,[3],35.67%
same,HEMOGLOBIN,[3],14.13 G/DL
same,LEUKOCYTE COUNT,[3],14.43 x10E3/uL
same,LYMPHOCYTE,[3],89.33%
same,MEAN CORPUSCULAR HEMOGLOBIN,[3],24.93 pg
same,MEAN CORPUSCULAR HEMOGLOBIN CONCENTRATION,[3],39.67 G/DL
same,MEAN CORPUSCULAR VOLUME,[3],62.87 fL
same,MONOCYTE,[3],1.33%
same,NEUTROPHIL,[3],9%
same,NUCLEATED RED BLOOD CELLS,[3],0.33 /100WBC
same,PLATELET COUNT,[3],866 x10E3/uL
same,ALANINE AMINOTRANSFERASE,[3],51 u/L
same,ALBUMIN,[3],4.57 G/DL
same,ALKALINE PHOSPHATASE,[3],318.67 u/L
same,ASPARTATE AMINOTRANSFERASE,[3],79.67 u/L
same,BLOOD UREA NITROGEN,[3],14 mg/dL
same,CARBON DIOXIDE,[3],30.33 mmol/L
same,CHLORIDE,[3],101.33 MEQ/L
same,CHOLESTEROL,[3],68.33 mg/dL
same,CREATINE PHOSPHOKINASE,[3],200.33 u/L
same,CREATININE,[3],0.16 mg/dL
same,GLUCOSE,[3],155.33 mg/dL
same,LACTATE DEHYDROGENASE,[3],118.67 u/L
same,LIPASE,[3],10 u/L
same,PHOSPHORUS,[3],10.77 mg/dL
same,POTASSIUM,[3],6.13 MEQ/L
same,SODIUM,[3],141.6 MEQ/L
same,TOTAL BILIRUBIN,[3],0.2 mg/dL
same,TOTAL PROTEIN,[3],6.3 G/DL
same,URIC ACID,[3],1.47 mg/dL
